Reference: patent US10543216B2, “Modus of administration of iron, and new formulations adapted for the said goal” (BIOFER S.P.A., priority 2013, dated 2020)

System: Pig esophageal epithelium
Assay: in vitro permeation in the Franz cell (model of sublingual absorption)
Settings: Franz cell, pig esophageal epithelium, 37° C.
Protocol: Sublingual absorption of Fe++ compounds was evaluated by means of in vitro permeation experiments using the Franz cell exemplified in FIG. 1. Pig esophageal epithelium was used as membrane. This experimental model is recognized as valid and reliable in the assessment of sublingual absorption of drugs [I. Diaz Del Consuelo, G. P. Pizzolato, F. Falsom, R. H. Guy, and Y. Jacques.: Evaluation of pig esophageal mucosa as a permeability barrier model for buccosal tissue. J. Pharm. […] Arch. […] Membrane preparation occurred by following the method described here. The esophagi were taken from the animals within one hour after sacrifice. The mucosa was separated from the muscle tissue with a lancet. To separate the epithelium, the mucosa was immersed in distilled water at 60° C. for 2 minutes and then the epithelium was removed from the underlying tissue with the aid of a spatula. The tissues thus prepared were stored at −20° C. until the time of use, when they were thawed to room temperature before being mounted on the vertical diffusion cells of the Franz type, a schematic view of which is shown in FIG. 1. The esophageal epithelium was placed on a regenerated cellulose filter (pore diameter 0.45 μm) with the luminal side facing up, and mounted between the donor and receptor compartments of the Franz cells. […] The exposed surface was 0.6 cm^2. The receptor compartment was filled with approximately 4 ml of physiological solution (0.9% NaCl w/v) and kept under constant magnetic agitation for the entire duration of the experiment. The entire system was thermostat-controlled at 37° C. Sampling of the receptor compartment was performed by drawing 200 μl of receptor solution, which were replaced immediately with an equal volume of fresh physiological solution. The samples were taken at preset time intervals, specifically at 0, 1, 2, 3, 4, 5 and 6 hours.
4 g of powder were suspended in 10 ml of physiological solution and left under agitation for 15 minutes, then the solution was filtered with regenerated cellulose filters (pore diameter 0.45 μm).
6 g of powder were suspended in 10 ml of physiological solution. The suspension was left under magnetic agitation for 25 minutes and then filtered with regenerated cellulose filters (pore diameter 0.45 μm).
7 g of powder were suspended in 6 ml of physiological solution. The suspension was left under magnetic agitation for 1 hour; at the end it was filtered with regenerated cellulose filters (pore diameter 0.45 μm).
An excess of ascorbic acid (2 g) was added to the solution. The suspension was left under magnetic agitation for 30 minutes and after filtration through regenerated cellulose filters (pore diameter 0.45 μm) was used as it was.
4 g of powder were suspended in 10 ml of physiological solution. The suspension was left under magnetic agitation for 15 hours, at the end of which it was filtered with regenerated cellulose filters (pore diameter 0.45 μm).
An excess of powder was suspended in 10 ml of physiological solution. The suspension was left under magnetic agitation for 15 hours, at the end of which it was filtered with regenerated cellulose filters (pore diameter 0.45 μm).

Q: For ferric citrate, which “permeation / absorption through the epithelium (in words)” value is on record?
A: appreciable only at very low pH values
